In the supplement of paper PMC11208160:

Test: recombinant barcode read abundance after kanamycin selection (control-corrected) (log10(CPM+1)); higher = more efficient recombination; sequences stand for … in AGTGCAGAGAAAATCGGCCAGTTTTCTCTGCCTGCAGTCCGCATGCCGT…AGATTTATGCAGCGGACTGCCTTTCTCCCAAAGTGATAAACCGGACAGTATCATGGACCGGTTTTCCCGGTAATCCGTATTTGCAAGGTTGGTTTCACT; site = the 11-nt target
Summary of the method: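 For this pooled screen, each oligo contained a promoter, a target, a barcode and the J23119-driven first 104 bases of the bridge RNA. Gibson cloning placed it into a vector supplying the remaining 73 bp and a T7-inducible recombinase, and the pool was co-electroporated into E. coli with a donor plasmid. Recombination efficiency is derived from barcode counts per million at recombinant junctions after averaging and control correction, and is expressed on a log scale as log10(CPM+1), with selection on chloramphenicol/ampicillin/kanamycin plus 0.1 mM IPTG against a chloramphenicol/ampicillin LB agar control.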
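Note: IS621 recombinase and bridge RNA in Escherichia coli cells.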

| Sequence | recombinant barcode read abundance (log10) |
| --- | --- |
| CGAGCTCCTTGGGTTCTAACCTGTTGCAT (site CGAGCTCCTAC) | 0.154 |
| TACGCTCCTTGGGTTCTAACCTGTTGCAT (site TACGCTCCTAA) | 0.053 |
| CATCAAGCTTGGGTTCTAACCTGTTGCCT (site GTATGGACTTT) | 0.0466 |
| TTCACGCCTTGGGTTCTAACCTGTTGCCT (site TTCGCGCCTAG) | 0.0353 |
| TCGTCTCCTTGGGTTCTAACCTGTTGCTT (site TCGTCTCCTAA) | 0 |
| TAACCATCTTGGGTTCTAACCTGTTGCCT (site TAACCATCTAG) | 0.266 |
| GATTATGCTTGGGTTCTAACCTGTTGCCT (site GATTATGCTAG) | 0.615 |
| AACTCAACTTGGGTTCTAACCTGTTGCCT (site AACTCAACTAG) | 0.288 |
| TAGGTCCCTTGGGTTCTAACCTGTTGCAT (site TAGGTACCTAT) | 0.389 |
| GGTGCTCCTTGGGTTCTAACCTGTTGCAG (site GGTGCTCCTGT) | 0 |
| CAGGGGACTTGGGTTCTAACCTGTTGCCG (site CAAGGGACTCC) | 0.177 |
| GTACATCCTTGGGTTCTAACCTGTTGCGT (site AAGGTCACTCA) | 0.0803 |
| CCGCACACTTGGGTTCTAACCTGTTGCCT (site GCGCACACTAG) | 0.213 |
| CTCCGTCCTTGGGTTCTAACCTGTTGCCG (site GCCCGTCCTCG) | 0.272 |
| TTACCAACTTGGGTTCTAACCTGTTGCCT (site TTACCGACTAG) | 0.0912 |
| CTCTAGTCTTGGGTTCTAACCTGTTGCCT (site CTCTAGTCTAC) | 0.792 |
| GCCCATGCTTGGGTTCTAACCTGTTGCGG (site GCCCATGCTCC) | 2.05 |
| CCGCACACTTGGGTTCTAACCTGTTGCCT (site ACGCACACTAG) | 0.191 |
| TGAGTCCCTTGGGTTCTAACCTGTTGCCT (site TGTGTCCCTAG) | 0.523 |
| TCCCGAGCTTGGGTTCTAACCTGTTGCCT (site TCCCGAGCTAG) | 1.55 |
| CTCTAGTCTTGGGTTCTAACCTGTTGCCT (site CTCTAGTCTAA) | 0.0156 |
| GATCGATCTTGGGTTCTAACCTGTTGCGT (site GATCGATCTAT) | 0.265 |

| Sequence | recombinant barcode read abundance (log10) |
| --- | --- |
| CAGCCACCTTGGGTTCTAACCTGTTGCCT (site CAGCCACCTAG) | 1.4 |
| AGGCTCCCTTGGGTTCTAACCTGTTGCCT (site AGCCTCCCTAG) | 0.0453 |
| TCTGGGGCTTGGGTTCTAACCTGTTGCTG (site TCTGGGGCTCC) | 0.216 |
| TGTTGAGCTTGGGTTCTAACCTGTTGCAG (site TGTTGAGCTCT) | 0.468 |
| CAAAGATCTTGGGTTCTAACCTGTTGCTT (site CAGAGATCTAA) | 0.0421 |
| GGTCGAACTTGGGTTCTAACCTGTTGCCT (site GGTCCAACTAG) | 0.127 |
| CGGTAACCTTGGGTTCTAACCTGTTGCCT (site TGGTAACCTAG) | 0.753 |
| TAGTGGCCTTGGGTTCTAACCTGTTGCTA (site TAGTGGCCTTA) | 0.132 |
| TGTGATCCTTGGGTTCTAACCTGTTGCAT (site TGTGATCCTAT) | 1.4 |
| GCACACACTTGGGTTCTAACCTGTTGCTG (site GAACACACTCG) | 0 |
| CTCTACCCTTGGGTTCTAACCTGTTGCAG (site CTCTACCCTCT) | 1.9 |
| AGACGTACTTGGGTTCTAACCTGTTGCCT (site AGTCGTACTAG) | 0.0904 |
| TCCAAGCCTTGGGTTCTAACCTGTTGCAG (site TCCAATCCTCT) | 0.39 |
| CGGGTGCCTTGGGTTCTAACCTGTTGCCT (site CCGGTGCCTAG) | 0.717 |
| TGTAGTCCTTGGGTTCTAACCTGTTGCCT (site TGTAGTCCTAA) | 0.0423 |
| ACCTTGTCTTGGGTTCTAACCTGTTGCTA (site ACCTTGTCTTA) | 0.777 |
| GTAGGAACTTGGGTTCTAACCTGTTGCTG (site GTAGGAACTCA) | 2.54 |
| TAGTGGTCTTGGGTTCTAACCTGTTGCTA (site TAGTGGTCTAT) | 0.403 |
| GGTGCTCCTTGGGTTCTAACCTGTTGCAG (site GGTGCTCCTCT) | 0.88 |
| GTGAGCACTTGGGTTCTAACCTGTTGCGG (site GTGAGAGCTCC) | 0.0559 |
| TATTATACTTGGGTTCTAACCTGTTGCAT (site TATTATACTAC) | 0.0379 |
| GTGCCCTCTTGGGTTCTAACCTGTTGCCG (site GTGCCCTCTCG) | 1.66 |

| Sequence | recombinant barcode read abundance (log10) |
| --- | --- |
| AGGAATCCTTGGGTTCTAACCTGTTGCTT (site AGGAATCCTAA) | 0.901 |
| CGAGCTCCTTGGGTTCTAACCTGTTGCAT (site CGAGCTCCTAA) | 0.0507 |
| GGTAAGACTTGGGTTCTAACCTGTTGCCT (site GGGAAGACTAG) | 0.197 |
| TCTAATTCTTGGGTTCTAACCTGTTGCAT (site TCTAATTCTAT) | 0.0913 |
| GGCACAACTTGGGTTCTAACCTGTTGCCT (site GGCACAACTAG) | 0.804 |
| TGGTATTCTTGGGTTCTAACCTGTTGCCT (site TGGTATACTAG) | 0.0539 |
| CTAGGCCCTTGGGTTCTAACCTGTTGCAT (site CTAGGCCCTAT) | 2.77 |
| CTACAGGCTTGGGTTCTAACCTGTTGCAC (site GAGTCTTCTTG) | 0.165 |
| TGACTAGCTTGGGTTCTAACCTGTTGCCT (site TGGCTAGCTAG) | 0.0206 |
| CCTGTAGCTTGGGTTCTAACCTGTTGCCT (site CCTGTAGCTAG) | 1.13 |
| ATAGAGTCTTGGGTTCTAACCTGTTGCCT (site ACAGATTCTAG) | 0.143 |
| TCCAAGCCTTGGGTTCTAACCTGTTGCAG (site TCCAACCCTCT) | 0.0251 |
| GGAATGCCTTGGGTTCTAACCTGTTGCCT (site GGAATGCCTAG) | 0.975 |
| CTAGGAGCTTGGGTTCTAACCTGTTGCGT (site CTAGGAGCTAC) | 2.12 |
| TCCAACCCTTGGGTTCTAACCTGTTGCGG (site TCGAACCCTCC) | 0.108 |
| GTACGGTCTTGGGTTCTAACCTGTTGCAT (site GTACGGTCTAT) | 2 |
| TACCCATCTTGGGTTCTAACCTGTTGCCT (site TACCCATCTAG) | 0.862 |
| CAACACCCTTGGGTTCTAACCTGTTGCAT (site GTTTCAACTTG) | 0.157 |
| GAATTAGCTTGGGTTCTAACCTGTTGCGG (site GTATTAGCTCG) | 0.287 |
| CGTTCGACTTGGGTTCTAACCTGTTGCAT (site CGTGCGACTAT) | 0.174 |
| TCGGGAACTTGGGTTCTAACCTGTTGCCT (site TCGCGAACTAG) | 0.502 |
| TCGGATACTTGGGTTCTAACCTGTTGCCA (site TCGGATACTTG) | 0.456 |

| Sequence | recombinant barcode read abundance (log10) |
| --- | --- |
| TCGAAGACTTGGGTTCTAACCTGTTGCCA (site CCGAAGACTAG) | 0.14 |
| TAGGAGACTTGGGTTCTAACCTGTTGCCC (site CAGGAGACTAG) | 0.0355 |
| AGTCTACCTTGGGTTCTAACCTGTTGCTT (site CGTCTACCTAA) | 0.0324 |
| CGTTGGTCTTGGGTTCTAACCTGTTGCGA (site CGTTGGTCTTC) | 0.759 |
| TCCACAGCTTGGGTTCTAACCTGTTGCCT (site TCCACACCTAG) | 0.212 |
| ACAATATCTTGGGTTCTAACCTGTTGCCT (site ACATGATCTAG) | 0.242 |
| GCACAACCTTGGGTTCTAACCTGTTGCCT (site GCACTACCTAG) | 0.0085 |
| ATCCTTACTTGGGTTCTAACCTGTTGCCT (site ACCCTTACTAG) | 0.136 |
| GTGTCTCCTTGGGTTCTAACCTGTTGCAT (site GTGTTTCCTAT) | 0.243 |
| GAGAGGTCTTGGGTTCTAACCTGTTGCAT (site GAGAGGTCTAG) | 0.458 |
| GCTTGTTCTTGGGTTCTAACCTGTTGCCT (site ACTTGTTCTAG) | 0.0443 |
| TCTAACCCTTGGGTTCTAACCTGTTGCAT (site TCTAATCCTAT) | 0.0655 |
| CTCTACACTTGGGTTCTAACCTGTTGCCA (site CTCTAAACTTG) | 0.0347 |
| TAGGCGCCTTGGGTTCTAACCTGTTGCGT (site TAGGCGCCTAC) | 0.735 |
| CTAATTGCTTGGGTTCTAACCTGTTGCAA (site CTAATTGCTTT) | 0.0868 |
| CAGGGGTCTTGGGTTCTAACCTGTTGCAT (site AGCCTCCCTTG) | 0.0284 |
| CAACACCCTTGGGTTCTAACCTGTTGCAT (site CAACACCCTAT) | 2.33 |
| GTAACTCCTTGGGTTCTAACCTGTTGCCT (site GTAACTCCTAG) | 0.487 |
| ATAGGTCCTTGGGTTCTAACCTGTTGCCT (site ATCGGTCCTAG) | 0.202 |
| TATACTACTTGGGTTCTAACCTGTTGCTT (site CACACTACTAA) | 0.0534 |
